Patent US6476012B2, “Estradiol-16α-carboxylic acid esters as locally active estrogens” (Yale University, priority 2001, dated 2002)
Counter-ions that a name gives are not always drawn.

How the values were obtained:
[1] = tested on: alkaline phosphatase (AlkP) induction in Ishikawa cells; assay: Estrogenic potency in Ishikawa cells: induction of AlkP; format: cell-based, human; settings: for RSA (estrogenic potency compared to E2): Ishikawa AlkP; for Ishikawa Cell AlkP RSA (relative stimulatory activity): induction of AlkP, E2 = 100, ± S.D.
Description: Estrogenic Potency in Ishikawa Cells. The estrogenic potency of the E2-analogs was determined in a estrogen bioassay, the induction of AlkP in human endometrial adenocarcinoma cells (Ishikawa) grown in 96-well microtiter plates as we have previously described.^28 In short, the cells are grown in phenol red free medium with estrogen depleted (charcoal stripped) bovine serum in the presence or absence of varying amounts of the steroids. […] After 3 days, the cells are washed, frozen and thawed, and then incubated with 5 mM p-nitrophenyl phosphate, a chromogenic substrate for the AlkP enzyme, at pH 9.8. To ensure linear enzymatic analysis, the plates are monitored kinetically for the for the production of p-nitrophenol at 405 nm. The relative stimulatory activity is determined by analysis of the curve fitting program Prism. Each compound was analyzed in at least 3 separate experiments performed in duplicate.

[2] = tested on: ovariectomized mouse vagina (vaginal reductase activity); assay: In vivo local estrogenic assay (vaginal reductases); settings: for dose producing a statistically significant (P<0.001) stimulation of vaginal reductase: intravaginal single dose in 25% propylene glycol in saline (FIG. 3a)
Description: FIG. 3 depicts the results of in vivo local estrogenic assay (vaginal assay).
Controls were injected with vehicle. The next morning, 2,3,5-triphenyltetrazolium chloride was instilled in the vagina and thirty minutes later the animals were killed and the vaginal reductase activity was determined spectrophotometrically Panel a: the steroids were dissolved in 10 μL of 25% propylene glycol in saline. Panel b: the steroids were dissolved in 10 μL of sesame oil. n=5. Error bars are±S.D. *P<0.001 compared to the control.
In Vivo Estrogen Bioassays: Vaginal reductases. […] In some experiments as indicated, the method was modified by dissolving and injecting the estrogens in 10 μL of sesame oil. The next morning 0.5 mg of 2,3,5-triphenyltetrazolium chloride in 20 μL of saline was instilled in the vagina. Thirty minutes the animals were killed and the vaginas removed, washed thoroughly with saline and then blotted on filter paper. Each vagina was placed in a 12×75 mm test tube and extracted for 1 hour with ethanol/tetrachloroethylene (3:1). Afterwards, the solvent was removed and the formazan product in the organic extract was quantified at 500 nm. Each compound was assayed on at least 3 separate occasions with at least 5 replicates each time.

[3] = tested on: human ERβ and ERα; assay: Competitive binding to human ERβ and ERα expressed in Escherichia coli lysates (ratio of RBAs); settings: RBAs (E2 = 100) in E. coli lysates expressing human ERβ and ERα separately
[4] = tested on: immature female rats (uterine weight); assay: In vivo systemic estrogenic assay (uterotrophic assay, uterine weight); set-up: species or system rat
Description: FIG. 2 depicts of the results of an in vivo systemic estrogenic assay (uterotrophic assay) as described in the experimental section. […] On the fourth day the animals were killed, the uteri removed and weighed. The total dose is shown. Controls were injected with sesame oil. Error bars are±S.D. n=5. *P<0.05, **P<0.001 when compared to the control.
In Vivo Estrogen Bioassays: Uterine Weight. […] Control animals received sesame oil. On the fourth day, the animals were killed, the uteri were removed, dissected, blotted and weighed. Each compound was assayed in 3 separate experiments with n=5.

[5] = biological target: T1, ER in rat uterine cytosol (ERα) (Rattus norvegicus, UniProt P06211); assay: Competitive binding to the ER in rat uterine cytosol (RBA vs [3H]E2); settings: for ER RBA (relative binding affinity): rat uterine estrogen receptor assay, E2 = 100, ± S.D.; for RBA: uterine cytosol (ERα), relative to E2
T1 construct: The uterus was removed and homogenized in ice-cold TEGDMo buffer; from tissue; host or cells: uterine cytosol of castrated female Sprague Dawley rats
T1 sequence (P06211 1-600): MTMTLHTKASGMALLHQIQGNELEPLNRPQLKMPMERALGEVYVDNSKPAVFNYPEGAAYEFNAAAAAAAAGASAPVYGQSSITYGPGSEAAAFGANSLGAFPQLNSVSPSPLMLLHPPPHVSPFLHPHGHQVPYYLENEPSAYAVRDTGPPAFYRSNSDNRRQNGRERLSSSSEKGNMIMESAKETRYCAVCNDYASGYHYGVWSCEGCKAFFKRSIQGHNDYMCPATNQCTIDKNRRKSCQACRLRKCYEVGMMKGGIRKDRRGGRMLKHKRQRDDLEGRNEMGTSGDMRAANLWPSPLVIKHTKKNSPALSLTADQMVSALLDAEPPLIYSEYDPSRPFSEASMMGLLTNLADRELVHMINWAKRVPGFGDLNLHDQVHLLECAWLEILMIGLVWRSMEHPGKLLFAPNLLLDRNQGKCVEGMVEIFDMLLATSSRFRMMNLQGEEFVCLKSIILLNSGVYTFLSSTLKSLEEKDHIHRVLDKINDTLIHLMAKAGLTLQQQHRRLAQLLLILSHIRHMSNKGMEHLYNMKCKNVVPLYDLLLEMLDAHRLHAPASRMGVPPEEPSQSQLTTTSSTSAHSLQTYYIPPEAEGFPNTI
Description: Competitive Binding to the Estrogen Receptor ERα and ERβ. […] The ER in uterine cytosol is ERα the classical form of the ER.^38 Female Sprague Dawley rats were castrated and sacrificed 24 h later. The uterus was removed and homogenized in ice-cold TEGDMo buffer (10 mM Tris, 1.5 mM Na2-EDTA, 10% (v/v) glycerol, 1.0 mM dithiothreitol, 25 mM sodium molybdate, pH 7.4 at 4° C.). and centrifuged at 105,000 g for 45 min at 4° C. The supernatant (cytosol) was frozen on dry ice and stored at −80° C. until assay. […] Incubations were carried out on ice overnight and bound radioactivity was separated from free by adsorption with dextran coated charcoal and quantified by counting.^26 Relative Binding Affinity (RBA) was determined by analysis of the displacement curves by the curve-fitting program Prism (Graph-Pad Software inc., San Diego, Calif.). The results shown in Table 1. below, are from at least 3 separate experiments performed in duplicate.

[6] = tested on: esterase(s) in rat hepatic microsomes; assay: Esterase assay with rat hepatic microsomes; format: in vitro ADME; settings: for Esterase RHA (relative hydrolytic activity): E16-1,2 = 100
Description: Esterase. Esterase activity was measured in rat hepatic microsomes essentially using the conditions described.^39 Liver obtained from Sprague-Dawley rats was washed with phosphate buffered saline and homogenized in 3 volumes of cold 0.25 M sucrose and centrifuged at 700 g for 10 min and then at 10,000 g for 20 min. The resulting supernatant was centrifuged at 105,000 g for 60 min. The pellet was suspended in 0.1 M phosphate buffer pH 7.4 and washed by centrifugation at 105,000 g for 60 min. The washed pellet was suspended in 0.1 M Tris-HCl pH 8.0 at a concentration of ˜13 mg protein/ml and frozen at −80° C. For assay, the pellets were thawed and diluted with the same buffer. The incubation mixture consisted of the microsomal enzyme preparation, 0.28 mg protein/ml, E2-16α-alkyl esters, 50 μM, added in 10 μL of ethanol, all in a final volume of 1 mL of Tris buffer pH 8.0. Since the rates of reaction are widely different for the various esters, the incubation times were varied accordingly to obtain linear kinetics. At several appropriate time points, 100 μL aliquots were withdrawn and the reaction was quenched with 33 μL CH3CN, followed by a 33 μL of a solution of THF containing 1 […] of the internal standard, 6-ketoestradiol. The quenched aliquot was centrifuged for several minutes on bench-top centrifuge and 80 μl of the supernatant was analyzed for the esterase-hydrolysis product (the corresponding E2-16α-carboxylic acid: E16-1,0 8; E16-2,0 23; E16-3,0 35) by reversed phase HPLC with system H-10 for E2-16-1 and E2-16-2 esters, and with system H-15 for E2-16-3 esters. The E2-16α-carboxyl products, (Rt for E16-1,0 8=7 min and for E16-2,0 23=9 min, E16-3,0 35=6.5 min) and the internal standard, 6-ketoestradiol (Rt 7.5 min in system H-10, and 5 min in system H-15) were quantified at 280 nm on the HPLC UV detector. The UV absorbance was converted to moles of product by comparison to standard curves and corrected for recovery of the internal standard, 6-ketoestradiol. The velocity of the reaction for each ester, in nmol product/min/ml/ was then normalized to the ester, E16-1,2 10 and is shown in Table 1 as relative hydrolytic activity (RHA). The enzymatic velocity for the hydrolysis of E16-1,2 10 was 0.9±0.2 (S.D.) nmol product/min/ml over the various experiments. Since all of the esters could not be tested simultaneously, in each case we compared the rate of hydrolysis of the test compound to that of E16-1,2 10 run concurrently. All compounds were tested in triplicate in 3 separate experiments.

[7] = Stability on incubation with heat denatured enzyme under esterase assay conditions; format: in vitro ADME; settings: heat denatured (1 h at 80° C.) enzyme, 37° C.
Description: The various E2-16α-alkyl esters, including the reactive E16-1,2vin 15, were stable under the conditions used in the esterase assay. Each of the substrates was incubated with heat denatured (1 h at 80° C.) enzyme at 37° C. for periods that exceeded the incubation times of the enzyme assay. Only insignificant amounts of carboxyl products were formed from any of these esters during the incubations with denatured enzyme.

ER RBA (relative binding affinity) [5]	RBA [5] [%]	Esterase RHA (relative hydrolytic activity) ([6]; rat hepatic microsomes, ± S.D.)	Structure (SMILES)	RSA (estrogenic potency compared to E2) [1] [%]	Ishikawa Cell AlkP RSA (relative stimulatory activity) [1]	vaginal estrogenic effect ([2]; 50 ng in sesame oil (FIG. 3b))	dose producing a statistically significant (P<0.001) stimulation of vaginal reductase [2] [ng]	ERα/ERβ (ratio of the RBAs) [3]	uterotrophic effect ([4]; 10 μg total dose per animal)	uterotrophic effect expressed as equivalent amount of E2 ([4]; 100 μg total dose)	also measured
40 ± 10	40	100	CCOC(=O)[C@@H]1C[C@H]2[C@@H]3CCc4cc(O)ccc4[C@H]3CC[C@]2(C)[C@H]1O [E16-1,2, Ethyl (3,17β-dihydroxyestra-1,3,5(10)-trien-16α-yl) formate]	11	11 ± 5	still not stimulatory	250	1,300	no measurable stimulation	about 4 μg	uterotrophic effect ([4]; 30 μg total dose): small increase in uterine weight; enzymatic velocity for the hydrolysis ([6]; rat hepatic microsomes 0.28 mg protein/ml, ester 50 μM, pH 8.0, ± S.D.): 0.9±0.2 nmol product/min/ml
35 ± 4	35	45 ± 10	COC(=O)[C@@H]1C[C@H]2[C@@H]3CCc4cc(O)ccc4[C@H]3CC[C@]2(C)[C@H]1O [E16-1,1, Methyl (3,17β-dihydroxyestra-1,3,5(10)-trien-16α-yl) formate]	10	10 ±3	still not stimulatory	250	750	small stimulatory action (P<0.05)	about 4 μg	uterotrophic stimulation expressed as equivalent amount of E2 ([4]; 30 μg total dose): ~3 ng; dose producing a reproducible and statistically significant stimulation (P<0.01) ([4]; immature rat, s.c. in sesame oil, 3 days, total dose): 30 to 50 µg
35 ± 3	35	420 ± 40	C[C@]12CC[C@@H]3c4ccc(O)cc4CC[C@H]3[C@@H]1C[C@@H](C(=O)OCCF)[C@@H]2O [E16-1,2F1, 2′-Fluoroethyl (3,17β-dihydroxyestra-1,3,5(10)-trien-16α-yl) formate]	13	13 ± 5	produced a significant estrogenic effect	100	2,000	–	–	vaginal estrogenic effect ([2]; 10 ng in sesame oil): consistent stimulation at 10 ng of E16-1,2F1, however, it was not statistically significant; vaginal estrogenic effect expressed as equivalent dose of E2 ([2]; 50 ng in sesame oil (FIG. 3b)): ~20 pg; uterotrophic effect ([4]; 100 μg total dose): did not produce a uterotrophic stimulation; uterotrophic effect expressed as equivalent amount of E2 ([4]; 300 μg total dose): less than 5 ng; uterotrophic effect ([4]; 300 μg total dose, other experiments (not shown)): small uterotrophic effect; rate of cleavage relative to the non-fluorinated ester E16-1,2 ([6]; esterase, rat hepatic microsomes): about 4 times
6 ± 2	6	20,300 ± 5,500	C=COC(=O)[C@@H]1C[C@H]2[C@@H]3CCc4cc(O)ccc4[C@H]3CC[C@]2(C)[C@H]1O [E16-1,2vin, Vinyl (3,17β-dihydroxyestran-1,3,5(10)-trien-16α-yl) formates]	–	0.4 ± 0.3	–	–	–	–	–	stability under the conditions used in the esterase assay [7]: stable
